Assay results taken from ChEMBL document CHEMBL5321219, “Selective degradation of cellular BRD3 and BRD4-L promoted by PROTAC molecules in six cancer cell lines” (Eur J Med Chem, 2023).
The source made the active and inactive calls. No cut-off for these calls is given here.

Experiments:
[1] = biological target: T1, Protein cereblon/Bromodomain-containing protein 3 (Homo sapiens) (UniProt Q15059+Q96SW2); test: PROTAC activity at CRBN/BRD3 in human MV4-11 cells assessed as induction of protein degradation at 0.1 to 10 nM measured after 24 hrs by Western blot analysis; assay type: cell-based; conditions: dose 0.1-10 nM
T1 sequence (Q15059 2-726 limits assumed): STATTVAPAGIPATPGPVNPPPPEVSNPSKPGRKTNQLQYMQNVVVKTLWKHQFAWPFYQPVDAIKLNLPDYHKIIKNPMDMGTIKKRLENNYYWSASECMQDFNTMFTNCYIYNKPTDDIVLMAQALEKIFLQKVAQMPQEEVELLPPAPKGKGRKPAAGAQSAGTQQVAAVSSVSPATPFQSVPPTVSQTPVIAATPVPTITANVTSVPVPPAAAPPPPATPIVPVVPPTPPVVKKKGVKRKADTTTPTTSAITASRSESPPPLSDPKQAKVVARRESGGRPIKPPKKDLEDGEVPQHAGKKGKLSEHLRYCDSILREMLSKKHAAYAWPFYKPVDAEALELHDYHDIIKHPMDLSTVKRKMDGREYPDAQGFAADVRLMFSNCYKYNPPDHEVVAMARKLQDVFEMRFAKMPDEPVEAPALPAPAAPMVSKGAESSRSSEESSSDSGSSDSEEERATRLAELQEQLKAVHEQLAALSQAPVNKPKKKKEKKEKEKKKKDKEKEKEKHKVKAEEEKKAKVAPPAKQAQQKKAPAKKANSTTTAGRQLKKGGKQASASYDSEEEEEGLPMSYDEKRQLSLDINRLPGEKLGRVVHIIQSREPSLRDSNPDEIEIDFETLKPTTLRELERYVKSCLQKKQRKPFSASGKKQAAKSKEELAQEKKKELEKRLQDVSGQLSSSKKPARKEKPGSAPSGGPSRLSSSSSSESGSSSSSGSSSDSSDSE
T1 sequence (Q96SW2 whole entry partner): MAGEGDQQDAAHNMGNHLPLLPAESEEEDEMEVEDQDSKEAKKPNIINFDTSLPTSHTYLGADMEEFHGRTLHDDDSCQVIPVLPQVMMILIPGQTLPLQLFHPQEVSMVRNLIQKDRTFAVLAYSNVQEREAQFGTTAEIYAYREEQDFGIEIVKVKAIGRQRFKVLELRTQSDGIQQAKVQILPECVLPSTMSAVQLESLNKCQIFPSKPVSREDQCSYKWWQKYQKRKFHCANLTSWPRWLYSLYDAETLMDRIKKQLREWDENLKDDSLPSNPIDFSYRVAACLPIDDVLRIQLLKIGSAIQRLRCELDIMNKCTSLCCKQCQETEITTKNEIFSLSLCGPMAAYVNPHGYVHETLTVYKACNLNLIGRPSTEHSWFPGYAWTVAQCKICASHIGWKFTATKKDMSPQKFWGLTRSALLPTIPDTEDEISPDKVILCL

[2] = biological target: T1, Protein cereblon/Bromodomain-containing protein 3 (Homo sapiens); test: PROTAC activity at CRBN/BRD3 in human HeLa cells assessed as induction of protein degradation measured after 24 hrs by Western blot analysis; assay type: cell-based; conditions: dose 1-300 nM
MM1.S [3] = test: Induction of cell cycle arrest in human MM1.S cells assessed as accumulation of cells at G2 phase at 1 nM incubated for 24 hrs by flow cytometry analysis (reference value: 14.68%); assay type: functional
[4] = biological target: T2, Protein cereblon/Bromodomain-containing protein 4 (Homo sapiens) (UniProt O60885+Q96SW2); test: PROTAC activity at CRBN/BRD4-L in human U-937 cells assessed as induction of protein degradation by Western blot analysis; assay type: cell-based
T2 sequence (Q96SW2 whole entry, looked up, other chains not shown): as the sequence (Q96SW2 whole entry partner) above

[5] = biological target: T2, Protein cereblon/Bromodomain-containing protein 4 (Homo sapiens); test: PROTAC activity at CRBN/BRD4-L in human MM1.S cells assessed as induction of protein degradation measured after 24 hrs by Western blot analysis; assay type: cell-based
[6] = biological target: T1, Protein cereblon/Bromodomain-containing protein 3 (Homo sapiens); test: PROTAC activity at CRBN/BRD3 in human MM1.S cells assessed as induction of protein degradation at 30 nM by Western blot analysis; assay type: cell-based; conditions: TDE = time-dependent effect
A549 = test: Antiproliferative activity against human A549 cells assessed as cell growth inhibition measured after 4 days by CCK-8 assay; assay type: functional, cell-based; conditions: A549, 96 h
[7] = biological target: T1, Protein cereblon/Bromodomain-containing protein 3 (Homo sapiens); test: PROTAC activity at CRBN/BRD3 in human MCF7 cells assessed as induction of protein degradation measured after 24 hrs by Western blot analysis; assay type: cell-based; conditions: dose 1-300 nM
MM1.S [8] = test: Antiproliferative activity against human MM1.S cells assessed as cell growth inhibition measured after 4 days by CellTitre-Glo assay; assay type: functional, cell-based; conditions: 96 h
[9] = biological target: T3, Protein cereblon/Bromodomain-containing protein 2 (Homo sapiens) (UniProt P25440+Q96SW2); test: PROTAC activity at CRBN/BRD2 in human A549 cells assessed as induction of protein degradation at 3 to 1000 nM measured after 24 hrs by Western blot analysis; assay type: cell-based; conditions: dose 3-1000 nM
T3 sequence (P25440 whole entry, looked up): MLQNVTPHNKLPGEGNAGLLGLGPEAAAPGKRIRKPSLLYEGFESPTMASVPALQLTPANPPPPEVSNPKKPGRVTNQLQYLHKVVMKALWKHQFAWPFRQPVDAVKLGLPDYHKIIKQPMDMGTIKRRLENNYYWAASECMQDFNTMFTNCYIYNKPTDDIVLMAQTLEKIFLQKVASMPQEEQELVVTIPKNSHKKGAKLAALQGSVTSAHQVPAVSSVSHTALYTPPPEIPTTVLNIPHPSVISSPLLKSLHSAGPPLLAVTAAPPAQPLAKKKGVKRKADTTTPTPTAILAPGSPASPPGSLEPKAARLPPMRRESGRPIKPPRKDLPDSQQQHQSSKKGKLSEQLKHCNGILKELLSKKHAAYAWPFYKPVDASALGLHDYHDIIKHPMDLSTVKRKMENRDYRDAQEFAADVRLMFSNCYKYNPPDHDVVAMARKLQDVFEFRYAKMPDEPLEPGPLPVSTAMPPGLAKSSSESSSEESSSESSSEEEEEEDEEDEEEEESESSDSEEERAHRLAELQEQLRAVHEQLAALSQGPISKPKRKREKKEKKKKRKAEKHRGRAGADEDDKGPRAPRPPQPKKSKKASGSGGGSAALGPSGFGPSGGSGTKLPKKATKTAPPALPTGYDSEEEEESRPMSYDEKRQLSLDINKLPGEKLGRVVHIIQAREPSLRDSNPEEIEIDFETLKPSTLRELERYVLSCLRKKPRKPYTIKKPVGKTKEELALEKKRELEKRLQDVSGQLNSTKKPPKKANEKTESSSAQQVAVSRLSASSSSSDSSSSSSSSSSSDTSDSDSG
T3 sequence (Q96SW2 whole entry, looked up): as the sequence (Q96SW2 whole entry partner) above

MM1.S [10] = test: Induction of cell cycle arrest in human MM1.S cells assessed as accumulation of cells at G2 phase at 100 nM incubated for 24 hrs by flow cytometry analysis (reference value: 14.68%); assay type: functional
[11] = biological target: T1, Protein cereblon/Bromodomain-containing protein 3 (Homo sapiens); test: PROTAC activity at CRBN/BRD3 in human MCF7 cells assessed as induction of protein degradation at 30 nM measured after 3 to 6 hrs by Western blot analysis; assay type: cell-based; conditions: time 3-6 hrs
[12] = biological target: T2, Protein cereblon/Bromodomain-containing protein 4 (Homo sapiens); test: PROTAC activity at CRBN/BRD4-L in human MM1.S cells assessed as induction of protein degradation at 30 nM pretreated with lenalidomide for 2 hrs followed by compound addition and measured after 4 hrs by Western blot analysis; assay type: cell-based
MM1.S [13] = test: Induction of cell cycle arrest in human MM1.S cells assessed as accumulation of cells at S phase at 300 nM incubated for 24 hrs by flow cytometry analysis (reference value: 22.37%); assay type: functional
MM1.S [14] = test: Induction of cell cycle arrest in human MM1.S cells assessed as accumulation of cells at G1 phase at 30 nM incubated for 24 hrs by flow cytometry analysis (reference value: 56.32%); assay type: functional
MM1.S [15] = test: Induction of cell cycle arrest in human MM1.S cells assessed as accumulation of cells at G2 phase at 30 nM incubated for 24 hrs by flow cytometry analysis (reference value: 14.68%); assay type: functional
[16] = biological target: T1, Protein cereblon/Bromodomain-containing protein 3 (Homo sapiens); test: PROTAC activity at CRBN/BRD3 in human U-937 cells assessed as induction of protein degradation by Western blot analysis; assay type: cell-based
MCF7 = test: Antiproliferative activity against human MCF7 cells assessed as cell growth inhibition measured after 4 days by CCK-8 assay; assay type: functional, cell-based; conditions: MCF7, 96 h
[17] = biological target: T2, Protein cereblon/Bromodomain-containing protein 4 (Homo sapiens); test: PROTAC activity at CRBN/BRD4-L in human MV4-11 cells assessed as induction of protein degradation at 0.1 to 30 nM measured after 24 hrs by Western blot analysis; assay type: cell-based; conditions: dose 0.1-30 nM
[18] = biological target: T1, Protein cereblon/Bromodomain-containing protein 3 (Homo sapiens); test: PROTAC activity at CRBN/BRD3 in human MM1.S cells assessed as induction of protein degradation at 30 nM measured after 3 to 6 hrs by Western blot analysis; assay type: cell-based; conditions: time 3-6 hrs
[19] = biological target: T2, Protein cereblon/Bromodomain-containing protein 4 (Homo sapiens); test: PROTAC activity at CRBN/BRD4-L in human MCF7 cells assessed as induction of protein degradation at 30 nM measured after 3 to 6 hrs by Western blot analysis; assay type: cell-based; conditions: time 3-6 hrs
MM1.S [20] = test: Downregulation of c-Myc protein expression in human MM1.S cells at 0.1 to 30 nM measured after 24 hrs by Western blot analysis; assay type: functional, cell-based; conditions: dose 0.1-30 nM
[21] = biological target: T3, Protein cereblon/Bromodomain-containing protein 2 (Homo sapiens); test: PROTAC activity at CRBN/BRD2 in human MM1.S cells assessed as induction of protein degradation at 30 nM measured around 24 hrs by Western blot analysis; assay type: cell-based
MM1.S [22] = test: Induction of cell cycle arrest in human MM1.S cells assessed as accumulation of cells at G1 phase at 1 nM incubated for 24 hrs by flow cytometry analysis (reference value: 56.32%); assay type: functional
MM1.S [23] = test: Induction of cell cycle arrest in human MM1.S cells assessed as accumulation of cells at G2 phase at 300 nM incubated for 24 hrs by flow cytometry analysis (reference value: 14.68%); assay type: functional
[24] = biological target: T2, Protein cereblon/Bromodomain-containing protein 4 (Homo sapiens); test: PROTAC activity at CRBN/BRD4-S in human HGC-27 cells assessed as induction of protein degradation at 0.1 to 30 nM measured after 24 hrs by Western blot analysis; assay type: cell-based; conditions: dose 0.1-30 nM
MM1.S [25] = test: Induction of cell cycle arrest in human MM1.S cells assessed as accumulation of cells at S phase at 100 nM incubated for 24 hrs by flow cytometry analysis (reference value: 22.37%); assay type: functional
[26] = biological target: T2, Protein cereblon/Bromodomain-containing protein 4 (Homo sapiens); test: PROTAC activity at CRBN/BRD4-L in human HGC-27 cells assessed as induction of protein degradation at 30 nM measured after 8 to 24 hrs by Western blot analysis; assay type: cell-based; conditions: time 8-24 hrs
[27] = biological target: T2, Protein cereblon/Bromodomain-containing protein 4 (Homo sapiens); test: PROTAC activity at CRBN/BRD4-S in human A549 cells assessed as induction of protein degradation at 3 to 1000 nM measured after 24 hrs by Western blot analysis; assay type: cell-based; conditions: dose 3-1000 nM
HeLa = test: Antiproliferative activity against human HeLa cells assessed as cell growth inhibition measured after 4 days by CCK-8 assay; assay type: functional, cell-based; conditions: 96 h
[28] = biological target: T1, Protein cereblon/Bromodomain-containing protein 3 (Homo sapiens); test: PROTAC activity at CRBN/BRD3 in human MM1.S cells assessed as induction of protein degradation at 30 nM pretreated with 0.2 to 10 uM MG132 for 2 hrs followed by compound addition and measured after 4 hrs by Western blot analysis; assay type: cell-based
[29] = biological target: T3, Protein cereblon/Bromodomain-containing protein 2 (Homo sapiens); test: PROTAC activity at CRBN/BRD2 in human U-937 cells assessed as induction of protein degradation by Western blot analysis; assay type: cell-based
[30] = biological target: T1, Protein cereblon/Bromodomain-containing protein 3 (Homo sapiens); test: PROTAC activity at CRBN/BRD3 in human HGC-27 cells assessed as induction of protein degradation measured after 24 hrs by Western blot analysis; assay type: cell-based; conditions: dose 0.1-30 nM
MM1.S [31] = test: Induction of cell cycle arrest in human MM1.S cells assessed as accumulation of cells at S phase at 30 nM incubated for 24 hrs by flow cytometry analysis (reference value: 22.37%); assay type: functional

Activity [1]: inactive
Activity [2]: Dose-Dependent Effect
Activity [4]: inactive
Activity [5]: Dose-Dependent Effect
Activity [6]: Tde
IC50 (A549): 14.3 µM
Activity [7]: Dose-Dependent Effect
IC50 (MM1.S [8]): 0.0952 µM
Activity [9]: inactive
Activity [11]: Active
Activity [12]: inactive
Activity [16]: inactive
IC50 (MCF7): 0.23 µM
Activity [17]: Active
Activity [18]: Active
Activity [19]: Active
Activity [21]: Active
Activity [24]: inactive
Activity [26]: Active
Activity [27]: inactive
IC50 (HeLa): 6.96 µM
Activity [28]: inactive
Activity [29]: Dose-Dependent Effect
Activity [30]: Dose-Dependent Effect
SMILES: Cc1nnc2n1-c1ccc(-c3ccc(CNCCCCc4cccc5c4CN(C4CCC(=O)NC4=O)C5=O)cc3)cc1C(Nc1ccc(Cl)cc1)CC2 (centres undefined)
Activity (MM1.S [3]): 15.24%
Activity (MM1.S [10]): 16.63%
Activity (MM1.S [13]): 13.79%
Activity (MM1.S [14]): 65.17%
Activity (MM1.S [15]): 15.18%
Activity (MM1.S [20]): Active
Activity (MM1.S [22]): 58.49%
Activity (MM1.S [23]): 15.38%
Activity (MM1.S [25]): 13.23%
Activity (MM1.S [31]): 15.21%
